Drawing on PubChem BioAssay (NCI), this text covers GI50 and TGI for eight compounds.

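Step 1: Grow cells in 96-well plates. Step 2: Expose to compound for 48 hours at 5 concentrations. Step 3: Interpolate endpoints linearly; if unreached, use highest concentration. Abbreviation: GI50, concentration required for 50% inhibition of growth. TGI denotes the concentration required for complete inhibition of growth.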

Common to all, as to test: growth of human tumour cells (NCI), 48 h
The test system of assay [1] is SK-OV-3 ovarian.
For assay [2], the system named is UO-31 renal.
In assay [3] the test system is SF-295 CNS.
Assay [4] has as its system 786-0 renal.
The subject of assay [5] is M14 melanoma.
Assay [6] has as its system SF-539 CNS.
For assay [7], the system named is PC-3 prostate.
The subject of assay [8] is NCI-H23 lung.
The test system of assay [9] is NCI-H226 lung.
Assay [10] relates to RPMI-8226 leukemia.

Regarding `N/C(=N\c1nc2ccccc2s1)NC(=NC1CCCCC1)NC1CCCCC1`, the GI50 is 1.84 µM in assay [1]; 1.27 µM in assay [2]; 1.64 µM in assay [3]; 1.65 µM in [4]; 1.63 µM in assay [5]; 1.66 µM in assay [6]. In addition, the GI50 is 1.52 µM in [7], 1.75 µM in assay [8] and 1.67 µM in assay [9]. Moreover, the TGI in assay [1] was 3.53 µM; in assay [2] it was 2.55 µM; in assay [3] it was 3.03 µM; in [4] it was 3.23 µM; in assay [5], 3.31 µM; in [6], 3.12 µM. In addition, the TGI in [7] was determined as 3.33 µM; in [8], 3.38 µM; in assay [9] it was 3.23 µM.
Consider `COc1ccc2c(c1)C(=O)c1c-2n(CCCN)c(=O)c2cc([N+](=O)[O-])ccc12`, for which the GI50 in assay [1], in assay [2], in assay [3], in assay [4], in assay [5] and in [10] was below 0.01 µM throughout. The GI50 in [6], in assay [7] and in assay [9] was below 0.01 µM in each case. The TGI in assay [1] is below 0.01 µM; in assay [2] it was 0.0172 µM; in [3], 12.2 µM; in [4] it was below 0.01 µM; in assay [5], below 0.01 µM; in assay [10], below 0.0222 µM. The TGI is below 0.01 µM in [6], 1.79 µM in [7] and below 0.01 µM in [9].
Take `O=C(Nc1cnc(C(F)(F)F)cn1)c1cc(Cl)ccc1O`: the GI50 was 0.196 µM in assay [2]; 0.255 µM in assay [3]; 0.356 µM in assay [4]; 0.306 µM in assay [5]; 0.273 µM in [10]; 0.294 µM in assay [6]. Also, the figures for the GI50 in assay [7], in assay [8] and in assay [9] were 0.311 µM, 0.257 µM and 0.322 µM, respectively. Besides, the TGI in assay [2] stood at 1.16 µM; in [3], 0.675 µM; in assay [4] it was 15.9 µM; in assay [5], 2.46 µM; in [10] it was 2.75 µM; in [6] it was 7.91 µM. Further, the TGI in assay [7] was above 100 µM; in [8], 1.22 µM; in [9], 23.9 µM.
Consider `COc1ccc2c(c1)C(=O)c1c-2c(N2CCNCC2)nc2ccccc12`, for which the GI50 in assay [1] was 6 µM; in [2], 2.29 µM; in assay [3], 10.4 µM; in [4], 3.17 µM; in assay [5] it was 1.91 µM; in assay [10], 1.64 µM. Also, the GI50 was 3.8 µM in [6], 0.267 µM in [7] and 10.9 µM in assay [9]. Besides, the TGI in [1] stood at 19.2 µM; in assay [2], 6.66 µM; in [3], 27.4 µM; in [4], 13.3 µM; in assay [5], 3.51 µM; in assay [10], 3.39 µM. The TGI in [6] amounted to 12.7 µM; in [7], 8.67 µM; in [9] it was 28.9 µM.
For the compound `Cc1cc(NC(=O)c2cnc(N3CCN(CCOCCOCCOCCOCCC(=O)N[C@H](C(=O)N4C[C@H](O)C[C@H]4C(=O)N[C@@H](C)c4ccc(-c5scnc5C)cc4)C(C)(C)C)CC3)cn2)c2ncccc2c1`, the GI50 in [1] is 8.5 µM; in [2] it was 12.7 µM; in assay [3] it was 2.23 µM; in assay [4], 4.61 µM; in assay [5] it was 2.19 µM; in [6] it was 2.12 µM. In addition, the values for the GI50 in assay [7], in assay [8] and in [9] were 2.85 µM, 3.57 µM and 28.7 µM, respectively. The TGI in assay [1] is above 100 µM; in [2] it was above 100 µM; in assay [3], 6.31 µM; in assay [4] it was above 100 µM; in [5] it was 4.94 µM; in assay [6], 4.68 µM. The TGI was 10.4 µM in [7], 15.8 µM in [8] and above 100 µM in assay [9].
On to `COc1ccc(Oc2ccccc2NC(=O)CNC(=O)c2cccc3ccccc23)cc1`, for which the GI50 in assay [1] was 1.02 µM; in assay [2] it was 1.49 µM; in assay [3], 0.402 µM; in [4], 1.14 µM; in [5], 0.545 µM; in assay [10], 1.13 µM. For the same compound, the values for the GI50 in assay [7], in assay [8] and in assay [9] were 1.06 µM, 1.28 µM and 4.3 µM, respectively. In addition, the TGI was above 25 µM in assay [1]; above 25 µM in [2]; above 25 µM in assay [3]; above 25 µM in assay [4]; above 25 µM in assay [5]; 8.45 µM in assay [10]. The TGI in assay [7], in assay [8] and in assay [9] was above 25 µM throughout.
Consider `CCN(CC)CCC(CNc1c(C)cnc2cc(Cl)ccc12)c1ccc(Cl)cc1` (configuration not stated), for which the GI50 was 15.1 µM in [1]; 2.53 µM in [3]; 8.53 µM in assay [4]; 2.96 µM in assay [10]; 1.63 µM in [6]; 10.7 µM in assay [7]. Further, the results for the GI50 in assay [8] and in assay [9] were 10.3 µM and 16 µM, respectively. For the same compound, the TGI is 28.9 µM in [1]; 10.7 µM in [3]; 22.6 µM in assay [4]; 13.6 µM in assay [10]; 3.31 µM in [6]; 24 µM in [7]. The TGI in [8] came out at 24.1 µM; in assay [9], 31.5 µM.
With `CC/C=C\C/C=C/C=C1/C(=O)C=C[C@@H]1C/C=C\CCCC(=O)OC`, the GI50 in [1] is 9.25 µM; in assay [2] it was 1.64 µM; in [3], 3.5 µM; in assay [4], 2.71 µM; in assay [5], 3.22 µM; in assay [10], 2.46 µM. Moreover, the GI50 in [6] is 3.04 µM; in [7], 2.44 µM; in [8], 1.9 µM. The TGI turned out to be 49.9 µM in assay [1]; 3.6 µM in assay [2]; 14 µM in assay [3]; 6.91 µM in assay [4]; 11.8 µM in assay [5]; 12.8 µM in assay [10]. Also, the TGI in [6] was determined as 10 µM; in [7], 7.1 µM; in assay [8], 4.45 µM.
